Results on seven compounds are retold here after US12409182B2, “Compositions and uses thereof for treatment of idiopathic preterm birth” (UNIVERSITY OF SOUTH FLORIDA, priority 2020, dated 2025).

In series [1] the test system is maternal stress induced pregnant mice. The series can be described thus: Maternal restraint stress induced preterm birth and fetal growth restriction in wild-type mice. Format: in vivo. Particulars: for litter size: 0.5 mg/kg daily i.p. GD14 to GD18, maternal stress administered mice; for maternal stress induced fetal growth restriction (pup birth weight) / maternal stress induced preterm birth (gestational length): 0.5 mg/kg daily i.p. GD14 to GD18, restraint stress GD8-GD18, vs placebo. The protocol:
(§1) Wild-type adult female mice were mated with adult males by housing 1:1 for 4 h (9.00 am-1.00 pm). Pregnancy was confirmed by observing vaginal plug and the presence of sperm in vaginal smears, which was designated as gestation day (GD) 0 dpc (10.00 am). Time-mated pregnant mice were randomly assigned into non-stress or restraint stress (ST) groups. Restraint stress was administered in three sessions for 1 h using standard restraint chambers starting on GD 8 through GD 18, while the control group was left undisturbed during pregnancy. Before first restrained stress administration, daily intraperitoneal injection of CC #1 (0.5 mg/kg) or CC #2 (0.5 mg/kg) or placebo (PBS) was administered in ST-mice from GD14 to GD 18. The timing of delivery was monitored. Pups weight, litter size, numbers of live and dead pups were recorded.
as §1, with “Experimental design to test effects of CC #1 and CC #2 administration in maternal stress induced pregnant mice (FIG. 2). Wild-type adult” for “Wild-type adult”, “stress was performed in three” for “stress was administered in three”, “daily intraperitoneal (I.P.) injection of” for “daily intraperitoneal injection of”

The test system of series [2] is FKBP51. The series can be described thus: Dexamethasone-induced FKBP51 protein levels in decidual cell monolayers (immunoblot). Format: cell-based. The following applies: confluent leukocyte-free term decidual cells, 10^-7 M Dex + compound, 24 h. Here is the method:
Three endogenous biochemicals (CC #1, CC #2, CC #3), which exist in human blood/tissues were tested as potential inhibitors of FKBP51 expression/action and confirmed that dexamethasone-induced inhibits FKBP51 expression in decidual cell cultures by all three compounds (FIG. 1).
(In general: Immunoblotting shows a protein as a band on a membrane.)

For series [3], the system named is FKBP51. The following applies: cultured primary human decidual cells; cited from earlier work.
The test system of the next series is Srd5a1 deficient mice. The following applies: Srd5a1 deficient mice (27% delivery rate without treatment); cited from earlier work.
Series [4] deals with Fkbp5+/+ and Fkbp5-/- mice. Description: Maternal dexamethasone or corticosterone injection, gestational length in Fkbp5+/+ or Fkbp5-/- mice. It is filed as in vivo. Particulars: corticosterone 10 mg/kg s.c. daily E8 through E18, Fkbp5+/+ or Fkbp5-/- mice. Here is the method:
Timing of Labor in Fkbp5^+/+ and Fkbp5^−/− Mice. To examine the effect of deletion of the Fkbp5 gene on birth timing, female Fkbp5^+/+ and Fkbp5^−/− mice (6-8 weeks-old) were mated with an adult Fkbp5^+/+ male (12-16 weeks old) by housing 1:1 for 4 h (9.00 am-1.00 pm). Pregnancy was confirmed by the presence of a vaginal plug or sperm in vaginal smears; gestational day (E) was designated at that time (10.00 am) as 0 dpc of pregnancy. The timing of delivery was monitored from E18 through E21 by observing mice every 4 h upon completion of delivery, and gestational length was calculated. Litter size, numbers of live and dead pups were recorded. Additionally, to determine whether there was a relative contribution of fetal genotype on birth timing, female Fkbp5^−/− mice were also mated with an adult male Fkbp5^−/− mice as described above and timing of labor was recorded.
Maternal Dexamethasone or Corticosterone injection. Dexamethasone-21-phosphate disodium salt (DEX; Sigma-Aldrich, St. Louis, MO) suspended in sterile PBS was administered intraperitoneally at 200 μg/kg. Corticosterone (CORT; Sigma-Aldrich) was dissolved in ethyl alcohol and diluted in PBS before injection and administered subcutaneously at 10 mg/kg. […]

On to `CCCCC/C=C/C=C1/C(=O)C=C[C@@H]1C/C=C\CCCC(=O)O` [CC #1, 15-deoxy-Δ12,14-prostaglandin J2], for which, in series [1], the litter size entry was “did not affect litter size”, the “maternal stress induced fetal growth restriction (pup birth weight)” value is “prevent maternal stress induced FGR” and the “maternal stress induced preterm birth (gestational length)” value was “prevent maternal stress induced PTB”. For the same compound, the “dexamethasone-induced FKBP51 protein levels” value with FKBP51 [2] is reported as “inhibits dexamethasone-induced FKBP51 protein levels”.

As to `CCCCCCCC/C(=C\CCCCCCCC(=O)O)[N+](=O)[O-]` [CC #2, 10-nitro-9E-octadecenoic acid], in series [1], the litter size result is given as “did not affect litter size”, the “maternal stress induced fetal growth restriction (pup birth weight)” value is reported as “prevent maternal stress induced FGR” and the “maternal stress induced preterm birth (gestational length)” value was “prevent maternal stress induced PTB”. For the same compound, the “dexamethasone-induced FKBP51 protein levels” value with FKBP51 [2] was “inhibits dexamethasone-induced FKBP51 protein levels”.

With `CCCCCCCC/C=C(\CCCCCCCC(=O)O)[N+](=O)[O-]` [CC #3, 9-nitro-9E-octadecenoic acid], the “dexamethasone-induced FKBP51 protein levels” value in the series with FKBP51 [2] is “inhibits dexamethasone-induced FKBP51 protein levels”.

For the compound `CC[C@@H]1C[C@H]2[C@@H]3CCC4=CC(=O)CC[C@@H]4[C@H]3CC[C@]2(C)[C@H]1C(=O)CO` [Organon 2058], the FKBP51 levels result with FKBP51 [3] is on record as “minimal stimulatory effects”.

With `CN(C)c1ccc([C@H]2C[C@]3(C)[C@@H](CC[C@]3(O)CCCO)[C@@H]3CCC4=CC(=O)CCC4=C32)cc1` [ZK98299], the parturition rate in the series with Srd5a1 deficient mice was 100%.

For the compound `C[C@]12C[C@H](O)[C@H]3[C@@H](CCC4=CC(=O)CC[C@@]43C)[C@@H]1CC[C@@H]2C(=O)CO` [corticosterone, Corticosterone], the gestational length entry in series [4] is listed as “did not shorten gestation”.

Turning to `CC(=O)O[C@]1(C(C)=O)CC[C@H]2[C@@H]3C[C@H](C)C4=CC(=O)CC[C@]4(C)[C@H]3CC[C@@]21C` [medroxyprogesterone acetate], the FKBP51 levels result in the series with FKBP51 [3] is listed as “up-regulated”.
